Where two headings read alike, the source gives them in different places.
How the values were obtained:
E. coli NIHJ JC2 = assay: in vitro antibacterial activity, agar plate dilution method (MIC); type: cell-based; conditions: for MIC: Escherichia coli, NIHJJC2, 16 h, read-out: Minimum Inhibitory Concentration (MIC), E. coli NIHJ JC2, 10^6 CFU/ml, 37° C.
Procedure: (§1) The in vitro antibacterial activities of the compounds of the present invention against various microorganisms, were measured by the following agar plate dilution method. One platinum loopfull of each test microorganism incubated overnight in Mueller Hinton broth, was inoculated to Mueller Hinton agar (inoculum size: 10^6 CFU/ml). Such culture media containing various antibiotics in various concentrations were prepared. After incubation at 37° C. for 16 hours, the minimum inhibitory concentrations (MIC: μg/ml) were measured.

E. cloacae 963 = assay: as above; type: cell-based; conditions: 10^6 CFU/ml
Procedure: as §1

K. pneumoniae No. 42 = assay: as above; type: cell-based; conditions: 10^6 CFU/ml; for Minimum Inhibitory Concentration (MIC): *K. pneumoniae No. 42, lactamase-producing strain
Procedure: as §1

P. vulgaris HX-19 = assay: as above; type: cell-based; conditions: for Minimum Inhibitory Concentration (MIC): P. vulgaris HX-19, 10^6 CFU/ml
Procedure: as §1

P. vulgaris No. 33 = assay: as above; type: cell-based; conditions: *P. vulgaris No. 33, lactamase-producing strain; 10^6 CFU/ml
Procedure: as §1

M. morganii GN5407 = assay: as above; type: cell-based; conditions: *M. morganii GN5407, lactamase-producing strain; 10^6 CFU/ml
Procedure: as §1

S. marcescens No. 16-2 = assay: as above; type: cell-based; conditions: for MIC: Serratia marcescens, NO.162, 16 h
Procedure: as §1

S. marcescens IAM 1184 = assay: as above; type: cell-based; conditions: S. marcescens IAM 1184, 10^6 CFU/ml
Procedure: as §1

K. oxytoca GN10650 = assay: as above; type: cell-based; conditions: 10^6 CFU/ml; for Minimum Inhibitory Concentration (MIC): *K. oxytoca GN10650, lactamase-producing strain
Procedure: as §1

E. cloacae Nek 39 = assay: as above; type: cell-based; conditions: 10^6 CFU/ml; for Minimum Inhibitory Concentration (MIC): *E. cloacae Nek 39, lactamase-producing strain
Procedure: as §1

K. pneumoniae PCI-602 = assay: as above; type: cell-based; conditions: 10^6 CFU/ml; for MIC: Klebsiella pneumoniae, PCI602, 16 h, read-out: Minimum Inhibitory Concentration (MIC), K. pneumoniae PCI-602
Procedure: as §1

E. coli GN5482 = assay: as above; type: cell-based; conditions: for MIC: Escherichia coli, GN5482, 16 h, read-out: Minimum Inhibitory Concentration (MIC)
Procedure: as §1

S. aureus 209P NIHJ-JC1 = assay: as above; type: cell-based; conditions: Staphylococcus aureus, 16 h
Procedure: as §1

Ps. cepacia 23 = assay: as above; type: cell-based, Pseudomonas cepacia; conditions: Ps. cepacia 23, 10^6 CFU/ml; for MIC: Burkholderia cepacia, 16 h, read-out: Minimum Inhibitory Concentration (MIC)
Procedure: as §1

A. calcoaceticus No. 4 = assay: as above; type: cell-based, Acinetobacter calcoaceticus; conditions: A. calcoaceticus No. 4, 10^6 CFU/ml; for MIC: Acinetobacter calcoaceticus, NO.4, 16 h, read-out: Minimum Inhibitory Concentration (MIC)
Procedure: as §1

E. coli CSH2 (RK1) = assay: microbe, parasite or virus in culture; type: cell-based; conditions: *E. coli CSH2 (RK1), lactamase-producing strain; 10^6 CFU/ml
Procedure: as §1

E. coli CSH(RE45) = assay: microbe, parasite or virus in culture; type: cell-based; conditions: *E. coli CSH(RE45), lactamase-producing strain; 10^6 CFU/ml
Procedure: as §1

Ps. aeruginosa IF03445 = assay: in vitro antibacterial activity, agar plate dilution method (MIC); type: cell-based, Pseudomonas aeruginosa; conditions: 10^6 CFU/ml; for Minimum Inhibitory Concentration (MIC): Ps. aeruginosa IF03445
Procedure: as §1

Ps. aeruginosa AKR17 = assay: as above; type: cell-based, Pseudomonas aeruginosa; conditions: 10^6 CFU/ml; for MIC: Pseudomonas aeruginosa
Procedure: as §1

Ps. aeruginosa AK 109 = assay: as above; type: cell-based, Pseudomonas aeruginosa; conditions: Ps. aeruginosa AK 109, 10^6 CFU/ml; for MIC: Pseudomonas aeruginosa, AK109, 16 h, read-out: Minimum Inhibitory Concentration (MIC)
Procedure: as §1

[1] = Enterobacter cloacae, 963, 16 h, read-out: Minimum Inhibitory Concentration (MIC), E. cloacae 963
[2] = read-out: Minimum Inhibitory Concentration (MIC)

| Compound | MIC (E. coli NIHJ JC2) [µg/mL] | MIC (E. cloacae 963; [1]) [µg/mL] | Minimum Inhibitory Concentration (MIC) (P. vulgaris HX-19) [µg/mL] | Minimum Inhibitory Concentration (MIC) (P. vulgaris No. 33) [µg/mL] | Minimum Inhibitory Concentration (MIC) (M. morganii GN5407) [µg/mL] | MIC (K. pneumoniae PCI-602) [µg/mL] | MIC (E. coli GN5482) [µg/mL] | MIC (Ps. cepacia 23) [µg/mL] | MIC (A. calcoaceticus No. 4) [µg/mL] | Minimum Inhibitory Concentration (MIC) (E. coli CSH2 (RK1)) [µg/mL] | Minimum Inhibitory Concentration (MIC) (E. coli CSH(RE45)) [µg/mL] | MIC (Ps. aeruginosa AK 109) [µg/mL] | Minimum Inhibitory Concentration (MIC) (K. pneumoniae No. 42) [µg/mL] | Minimum Inhibitory Concentration (MIC) (S. marcescens IAM 1184) [µg/mL] | Minimum Inhibitory Concentration (MIC) (K. oxytoca GN10650) [µg/mL] | Minimum Inhibitory Concentration (MIC) (E. cloacae Nek 39) [µg/mL] | Minimum Inhibitory Concentration (MIC) (Ps. aeruginosa IF03445) [µg/mL] | also measured |
| --- | --- | --- | --- | --- | --- | --- | --- | --- | --- | --- | --- | --- | --- | --- | --- | --- | --- | --- |
| Nc1nc(/C(=N/OC(C(=O)O)c2ccccc2)C(=O)N[C@@H]2C(=O)N3C(C(=O)O)=C(CSc4nnc(-c5ccc(O)c(O)c5)o4)CS[C@H]23)cs1 (single isomer, unassigned) [Example 24 DA, disodium 78-[2-(2-aminothiazol-4-yl)-2-(α-carboxylatebenzyloxyimino)acetamido]-3-[5-(3,4-dihydroxyphenyl)-1,3,4-oxadiazol-2-yl]-thiomethyl-3-cephem-4-carboxylate] | 0.2 | 0.05 | < 0.006 | 0.0125 | 0.025 | < 0.006 | 0.39 | < 0.006 | 0.05 | < 0.006 | < 0.006 | 0.1 |  |  |  |  |  | MIC (K. pneumoniae No. 42; Klebsiella pneumoniae, NO.42, 16 h, read-out: Minimum Inhibitory Concentration (MIC), *K. pneumoniae No. 42, lactamase-producing strain): 0.0125 µg/mL; MIC (S. marcescens No. 16-2; read-out: Minimum Inhibitory Concentration (MIC), *S. marcescens No. 16-2, lactamase-producing strain, 10^6 CFU/ml): 0.78 µg/mL; MIC (S. marcescens IAM 1184; Serratia marcescens, IAM1184, 16 h, read-out: Minimum Inhibitory Concentration (MIC)): 0.025 µg/mL; MIC (K. oxytoca GN10650; Klebsiella oxytoca, GN10650, 16 h, read-out: Minimum Inhibitory Concentration (MIC), *K. oxytoca GN10650, lactamase-producing strain): 0.0125 µg/mL; MIC (E. cloacae Nek 39; Enterobacter cloacae, NEK39, 16 h, read-out: Minimum Inhibitory Concentration (MIC), *E. cloacae Nek 39, lactamase-producing strain): 0.025 µg/mL; MIC (S. aureus 209P NIHJ-JC1; [2]): 12.5 µg/mL; MIC (Ps. aeruginosa IF03445; Pseudomonas aeruginosa, IF03445, 16 h, read-out: Minimum Inhibitory Concentration (MIC), Ps. aeruginosa IF03445): 0.78 µg/mL; MIC (Ps. aeruginosa AKR17; AKR17, 16 h, read-out: Minimum Inhibitory Concentration (MIC), Ps. aeruginosa AKR17): 0.78 µg/mL |
| Nc1nc(/C(=N/OC(C(=O)O)c2ccccc2)C(=O)N[C@@H]2C(=O)N3C(C(=O)O)=C(CSc4nnc(-c5ccc(O)c(O)c5)o4)CS[C@H]23)cs1 (single isomer, unassigned) [Example 24 DB, disodium 78-[2-(2-aminothiazol-4-yl)-2-(α-carboxylatebenzyloxyimino)acetamido]-3-[5-(3,4-dihydroxyphenyl)-1,3,4-oxadiazol-2-yl]-thiomethyl-3-cephem-4-carboxylate] |  |  | 0.05 | 0.1 | 0.2 |  |  |  |  | 0.0125 | 0.0125 |  | 0.025 | 0.05 | 0.025 | 0.05 | 1.56 | Minimum Inhibitory Concentration (MIC) (E. coli NIHJ JC2; E. coli NIHJ JC2, 10^6 CFU/ml, 37° C., 16 hours): 0.39 µg/mL; MIC (E. cloacae 963; Enterobacter cloacae, 16 h, E. cloacae 963, read-out: Minimum Inhibitory Concentration (MIC)): 0.1 µg/mL; Minimum Inhibitory Concentration (MIC) (S. marcescens No. 16-2; *S. marcescens No. 16-2, lactamase-producing strain, 10^6 CFU/ml): 0.78 µg/mL; Minimum Inhibitory Concentration (MIC) (K. pneumoniae PCI-602; K. pneumoniae PCI-602): < 0.006 µg/mL; Minimum Inhibitory Concentration (MIC) (E. coli GN5482; *E. coli GN5482, lactamase-producing strain, 10^6 CFU/ml): 0.39 µg/mL; MIC (S. aureus 209P NIHJ-JC1; S. aureus 209P NIHJ-JC1, 10^6 CFU/ml, 37° C., 16 hours, read-out: Minimum Inhibitory Concentration (MIC)): 25 µg/mL; Minimum Inhibitory Concentration (MIC) (Ps. cepacia 23): < 0.006 µg/mL; Minimum Inhibitory Concentration (MIC) (A. calcoaceticus No. 4): 0.05 µg/mL; Minimum Inhibitory Concentration (MIC) (Ps. aeruginosa AKR17; Ps. aeruginosa AKR17): 0.78 µg/mL; Minimum Inhibitory Concentration (MIC) (Ps. aeruginosa AK 109): 0.2 µg/mL |
| Nc1nc(C(=NOC(C(=O)O)c2ccc(O)c(O)c2)C(=O)NC2C(=O)N3C(C(=O)O)=C(CSc4nnc(-c5ccc(O)c(O)c5)s4)CSC23)cs1 (single isomer, unassigned) [Example 38 DA, disodium 7β-{2-(2-aminothiazol-4-yl)-2-(α-carboxylate-3,4-dihydroxybenzyloxyimino)acetamido]-3-[5-(3,4-dihydroxyphenyl)-1,3,4-thiadiazol-2-yl]thiomethyl-3-cephem-4-carboxylate] | 0.2 | 0.05 |  | 0.025 | 0.05 | < 0.006 | 0.2 | < 0.006 | 0.025 | < 0.006 | < 0.006 | 0.2 | 0.0125 | 0.025 | 0.025 | 0.1 | 0.39 | MIC (P. vulgaris HX-19; Proteus vulgaris, HX19, 16 h, read-out: Minimum Inhibitory Concentration (MIC)): 0.0125 µg/mL; MIC (S. marcescens No. 16-2; [2]): 0.2 µg/mL; MIC (S. aureus 209P NIHJ-JC1; read-out: Minimum Inhibitory Concentration (MIC), S. aureus 209P NIHJ-JC1, 10^6 CFU/ml, 37° C., 16 hours): 0.78 µg/mL; MIC (Ps. aeruginosa AKR17; 16 h, Ps. aeruginosa AKR17, read-out: Minimum Inhibitory Concentration (MIC)): 0.1 µg/mL |

From patent US5061794A, “Cephalosporin derivatives, and antibacterial agents” (priority 1986, dated 1991)
